Here are results for twelve compounds from PubChem BioAssay AID182 (DTP/NCI, 2004).

Each structure is given as a SMILES string. Several values for one entry are separate records, joined by “and”; a condition that tells them apart may be missing. Equal values may be shown once. Inconclusive results and toxic doses are left out. Starred links: 1 amine or outer side, 2 acyl side, 3 side chain; linkers in the order of their positions; H or OH if unused. Positions of bridges follow the written chain, without caps; N, C: chain ends. Non-standard residues stand in square brackets, D forms with d. Residues, ends and D or L forms follow the SMILES beside them. Chains are numbered I, II in the order given. Actinocin(9to1) = Cc1c2oc3c(C)ccc(C(=O)[*:1])c3nc-2c(C(=O)[*:2])c(N)c1=O; aThr = C[C@H](O)[C@H](N)C(=O)O; NMeV = CN[C@H](C(=O)O)C(C)C; Sar = CNCC(=O)O

The subject of this assay is BDF1 mice, P388/ADR leukemia ip, median survival T/C. The assay can be described thus: NCI In Vivo Anticancer Drug Screen. Data for tumor model P388 Leukemia resistant to Adriamycin; NSC 123127, Developed at Scr 06 and 41 (intraperitoneal) in B6D2F1 (BDF1) mice. The following applies: endpoint: median survival time, higher = longer survival. As for the experimental part:
The antitumor activity of compounds was measured in mice bearing transplantable tumors. Survival or tumor size were measured and the results are expressed as the measurement made in the treated group (T) divided by the measurement made in the vehicle treated control group (C). The tumor model used in this assay is P388 Leukemia resistant to Adriamycin; NSC 123127, Developed at Scr 06 and 41 (intraperitoneal) in B6D2F1 (BDF1) mice

The mark [1] stands for this setting: dose: 2.88 mg/kg/injection, schedule: Q04DX003 (ip), vehicle: water.
The mark [2] stands for this setting: dose: 18.0 mg/kg/injection, schedule: Q04DX003 (ip), vehicle: saline.
The mark [3] stands for this setting: dose: 30.0 mg/kg/injection, schedule: Q04DX003 (ip), vehicle: saline.

As for `COc1cccc2c1C(=O)c1c(O)c3c(c(O)c1C2=O)C[C@@](O)(C(=O)CO)C[C@@H]3OC1CC(N)C(O)C(C)O1` (some centres undefined), the T/C reads like this: (dose: 0.65 mg/kg/injection, schedule: Q01DX009 (ip), vehicle: saline) 107 % of control; (dose: 1.08 mg/kg/injection, schedule: Q01DX009 (ip), vehicle: saline) 109 % of control; (dose: 1.3 mg/kg/injection, schedule: Q04DX003 (ip), vehicle: saline) 112 % of control; (dose: 1.3 mg/kg/injection, schedule: Q04DX003 (ip), vehicle: water) 102 % of control and 115 % of control; (dose: 1.5 mg/kg/injection, schedule: Q04DX003 (ip), vehicle: water) 100 % of control; (dose: 1.73 mg/kg/injection, schedule: Q04DX003 (ip), vehicle: water) 116 % of control. Besides, the T/C (dose: 1.8 mg/kg/injection, schedule: Q01DX009 (ip), vehicle: saline) was 110 % of control; the T/C (dose: 2.16 mg/kg/injection, schedule: Q04DX003 (ip), vehicle: saline) is 109 % of control; the T/C (dose: 2.16 mg/kg/injection, schedule: Q04DX003 (ip), vehicle: water) was 99 % of control and 120 % of control and 102 % of control; the T/C under setting [1] is 124 % of control; the T/C (dose: 3.0 mg/kg/injection, schedule: Q01DX009 (ip), vehicle: saline) is 96 % of control; the T/C (dose: 3.0 mg/kg/injection, schedule: Q04DX003 (ip), vehicle: water) was 100 % of control. In addition, the T/C reads like this: (dose: 3.6 mg/kg/injection, schedule: Q04DX003 (ip), vehicle: saline) 120 % of control; (dose: 3.6 mg/kg/injection, schedule: Q04DX003 (ip), vehicle: water) 115 % of control and 122 % of control and 100 % of control; (dose: 4.8 mg/kg/injection, schedule: Q04DX003 (ip), vehicle: water) 103 % of control; (dose: 6.0 mg/kg/injection, schedule: Q04DX003 (ip), vehicle: water) 99 % of control [middle of 4 runs]; (dose: 10.0 mg/kg/injection, schedule: Q04DX003 (ip), vehicle: water) 98 % of control; (dose: 66.7 mg/kg/injection, schedule: Q04DX003 (ip), vehicle: water) 96 % of control.
For the compound `COc1cccc2c1C(=O)c1c(O)c3c(c(O)c1C2=O)CC(O)(C(=O)CO)CC3OC1CC(N)C(O)C(C)O1` (centres undefined), the T/C reads like this: (dose: 1.73 mg/kg/injection, schedule: Q01DX004 (ip), vehicle: water) 103 % of control; (dose: 6.48 mg/kg/injection, schedule: Q04DX003 (ip), vehicle: saline) 107 % of control; (dose: 10.8 mg/kg/injection, schedule: Q04DX003 (ip), vehicle: saline) 93 % of control; under setting [2], 106 % of control; under setting [3], 94 % of control.
Take `COC(=O)C[C@](O)(CCCC(C)(C)O)C(=O)O[C@@H]1C(OC)=C[C@]23CCCN2CCc2cc4c(cc2[C@H]13)OCO4`: the T/C reads like this: (dose: 0.72 mg/kg/injection, schedule: Q04DX003 (ip), vehicle: acid diluted with saline) 100 % of control; (dose: 1.2 mg/kg/injection, schedule: Q04DX003 (ip), vehicle: acid diluted with saline) 103 % of control; (dose: 2.0 mg/kg/injection, schedule: Q04DX003 (ip), vehicle: acid diluted with saline) 110 % of control.
As for `CC(CN1CC(=O)NC(=O)C1)N1CC(=O)NC(=O)C1` (centres undefined), the T/C is 106 % of control (dose: 86.4 mg/kg/injection, schedule: Q04DX003 (ip), vehicle: Klucel (hydroxypropylcellulose) (HPC)); 100 % of control (dose: 100.0 mg/kg/injection, schedule: Q04DX003 (ip), vehicle: Klucel (hydroxypropylcellulose) (HPC)); 104 % of control (dose: 108.0 mg/kg/injection, schedule: Q04DX003 (ip), vehicle: Klucel (hydroxypropylcellulose) (HPC)); 122 % of control (dose: 144.0 mg/kg/injection, schedule: Q04DX003 (ip), vehicle: Klucel (hydroxypropylcellulose) (HPC)); 102 % of control (dose: 180.0 mg/kg/injection, schedule: Q04DX003 (ip), vehicle: Klucel (hydroxypropylcellulose) (HPC)); 93 % of control (dose: 200.0 mg/kg/injection, schedule: Q04DX003 (ip), vehicle: Klucel (hydroxypropylcellulose) (HPC)). The T/C was 107 % of control (dose: 216.0 mg/kg/injection, schedule: Q04DX003 (ip), vehicle: Klucel (hydroxypropylcellulose) (HPC)); 102 % of control (dose: 300.0 mg/kg/injection, schedule: Q04DX003 (ip), vehicle: Klucel (hydroxypropylcellulose) (HPC)); 93 % of control (dose: 400.0 mg/kg/injection, schedule: Q04DX003 (ip), vehicle: Klucel (hydroxypropylcellulose) (HPC)).
As for `CCCCCCCC(=O)OCC(=O)[C@]1(O)Cc2c(O)c3c(c(O)c2[C@@H](OC2CC(N)C(O)C(C)O2)C1)C(=O)c1c(OC)cccc1C3=O` (some centres undefined), the T/C under setting [1] was 121 % of control.
For the compound `O=C(Nc1ccc(C2=NCCCN2)cc1)c1ccc(C(=O)Nc2ccc(C3=NCCCN3)cc2)cc1`, the T/C (dose: 10.8 mg/kg/injection, schedule: Q04DX003 (ip), vehicle: other) is 118 % of control and the T/C (dose: 30.0 mg/kg/injection, schedule: Q04DX003 (ip), vehicle: other) was 94 % of control.
As to `CN(Cc1cnc2nc(N)nc(N)c2n1)c1ccc(C(=O)N[C@@H](CCC(=O)O)C(=O)O)cc1`, the T/C was 158 % of control (dose: 10.8 mg/kg/injection, schedule: Q04DX003 (ip), vehicle: sodium bicarbonate); 188 % of control (dose: 18.0 mg/kg/injection, schedule: Q04DX003 (ip), vehicle: sodium bicarbonate); 166 % of control (dose: 30.0 mg/kg/injection, schedule: Q04DX003 (ip), vehicle: sodium bicarbonate); 111 % of control (dose: 50.0 mg/kg/injection, schedule: Q04DX003 (ip), vehicle: sodium bicarbonate).
`CC[C@](O)(C(=O)O)c1cc2n(c(=O)c1CO)Cc1cc3ccccc3nc1-2`: the T/C reads like this: under setting [2], 183 % of control; under setting [3], 209 % of control; (dose: 50.0 mg/kg/injection, schedule: Q04DX003 (ip), vehicle: saline) 206 % of control.
Take `CCN(CC)CCNc1ccc(CO)c2sc3ccccc3c(=O)c12`: the T/C by setting is: (dose: 17.3 mg/kg/injection, schedule: Q01DX009 (ip), vehicle: water) 93 % of control; (dose: 25.2 mg/kg/injection, schedule: Q01DX009 (ip), vehicle: water) 108 % of control; (dose: 28.8 mg/kg/injection, schedule: Q01DX009 (ip), vehicle: water) 100 % of control; (dose: 42.0 mg/kg/injection, schedule: Q01DX009 (ip), vehicle: water) 117 % of control; (dose: 48.0 mg/kg/injection, schedule: Q01DX009 (ip), vehicle: water) 104 % of control; (dose: 70.0 mg/kg/injection, schedule: Q01DX009 (ip), vehicle: water) 104 % of control. Where the note is “dose: 117.0 mg/kg/injection, schedule: Q01DX009 (ip), vehicle: water”, the T/C was 88 % of control.
Take `C[n+]1ccc(Nc2ccc(NC(=O)c3ccc(Nc4cc[n+](C)c5ccc(N)cc45)cc3)cc2)cc1`: the T/C (dose: 7.2 mg/kg/injection, schedule: Q01DX009 (ip), vehicle: water) is 163 % of control.
In the case of `COC1C(O)C(C)OC(OC2C(Oc3cccc4c(O)c5c(=O)oc6ccc(C)c7c(=O)oc(c34)c5c67)OC(C)C(O)C2O)C1O` (centres undefined), the T/C (dose: 43.2 mg/kg/injection, schedule: Q04DX003 (ip), vehicle: Klucel (hydroxypropylcellulose) (HPC)) was 87 % of control.
Consider `Cc1c2oc3c(C)ccc(C(=O)N[C@@H]4C(=O)N[C@H](C(C)C)C(=O)N5CCC[C@H]5C(=O)N(C)CC(=O)N(C)[C@@H](C(C)C)C(=O)O[C@H]4C)c3nc-2c(C(=O)N[C@@H]2C(=O)N[C@H](C(C)C)C(=O)N3CCC[C@H]3C(=O)N(C)CC(=O)N(C)[C@@H](C(C)C)C(=O)O[C@H]2C)c(N)c1=O` (I: [aThr][dV]P[Sar][NMeV] / II: [aThr][dV]P[Sar][NMeV]; ester I:1-I:C, II:1-II:C; linker I:N-II:N via Actinocin(9to1)), for which the T/C runs as follows: (dose: 0.3 mg/kg/injection, schedule: Q04DX003 (ip), vehicle: saline) 173 % of control; (dose: 108.0 micrograms/kg/injection, schedule: Q04DX003 (ip), vehicle: saline + alcohol) 111 % of control and 201 % of control; (dose: 180.0 micrograms/kg/injection, schedule: Q04DX003 (ip), vehicle: saline + alcohol) 118 % of control; (dose: 300.0 micrograms/kg/injection, schedule: Q04DX003 (ip), vehicle: saline + alcohol) 116 % of control and 117 % of control; (dose: 500.0 micrograms/kg/injection, schedule: Q04DX003 (ip), vehicle: saline + alcohol) 88 % of control.
